The experiment deals with T1, bile salt hydrolase from Arthrobacter citreus EINP1 (BSHAc) (Arthrobacter citreus, UniProt A0ABZ2ZT44).
T1 construct: gene bsh; C-terminally hexahistidine-tagged recombinant BSHAc; NCBI WP_342023006.1
As to the kind of experiment: […] Å crystal structure of the covalent complex; time-dependent inactivation kinetics of the purified enzyme (kinact/KI […] ^-1s^-1). In kind it is biochemical.

The values that follow come from paper PMC11736000, “Structural and functional analysis of a bile salt hydrolase from the bison microbiome” (The Journal of Biological Chemistry, 2024).

T1 sequence (A0ABZ2ZT44 entry or part of it): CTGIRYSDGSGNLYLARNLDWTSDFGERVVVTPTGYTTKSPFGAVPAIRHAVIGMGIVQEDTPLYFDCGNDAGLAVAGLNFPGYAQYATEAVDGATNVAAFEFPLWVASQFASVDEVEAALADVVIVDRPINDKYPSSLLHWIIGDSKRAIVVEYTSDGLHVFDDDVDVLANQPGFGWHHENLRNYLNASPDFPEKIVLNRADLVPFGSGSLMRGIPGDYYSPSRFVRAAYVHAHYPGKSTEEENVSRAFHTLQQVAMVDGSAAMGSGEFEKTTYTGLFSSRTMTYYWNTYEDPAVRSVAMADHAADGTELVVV

Turning to `C[C@H](CCC(=O)CF)[C@H]1CC[C@H]2[C@@H]3CC[C@@H]4C[C@H](OS(=O)(=O)O)CC[C@]4(C)[C@H]3CC[C@]12C` [AAA-10], the KI (inactivation) came out at 23 µM.
